From ChEMBL document CHEMBL5696442, “Discovery of type II inhibitors of TGFβ-activated kinase 1 (TAK1) and mitogen-activated protein kinase kinase kinase kinase 2 (MAP4K2)” (J Med Chem, 2015)

What was measured:
[1] = molecular target: STE20-like serine/threonine-protein kinase (Homo sapiens) (UniProt Q9H2G2); assay: Inhibition of SLK K2 labeling site harbouring IIHRDLKAGNILFTLDGDIK in human Huh-7 cells at 10 uM by KiNativ Profiling analysis relative to control; format: cell-based
[2] = test system: Tyrosine-protein kinase ABL1 (Homo sapiens), P00519 [F317L]; assay: Inhibition of ABL1 F317L mutant (unknown origin) at 10 uM by Ambit Kinomescan binding assay relative to control
[3] = molecular target: T1, Mitogen-activated protein kinase kinase kinase 6 (Homo sapiens) (UniProt O95382); assay: Inhibition of MAP3K6 Lys1 labeling site harbouring IAIKEIPERDSR in human A-375 cells at 5 uM by KiNativ Profiling analysis relative to control; format: cell-based
T1 sequence (whole entry): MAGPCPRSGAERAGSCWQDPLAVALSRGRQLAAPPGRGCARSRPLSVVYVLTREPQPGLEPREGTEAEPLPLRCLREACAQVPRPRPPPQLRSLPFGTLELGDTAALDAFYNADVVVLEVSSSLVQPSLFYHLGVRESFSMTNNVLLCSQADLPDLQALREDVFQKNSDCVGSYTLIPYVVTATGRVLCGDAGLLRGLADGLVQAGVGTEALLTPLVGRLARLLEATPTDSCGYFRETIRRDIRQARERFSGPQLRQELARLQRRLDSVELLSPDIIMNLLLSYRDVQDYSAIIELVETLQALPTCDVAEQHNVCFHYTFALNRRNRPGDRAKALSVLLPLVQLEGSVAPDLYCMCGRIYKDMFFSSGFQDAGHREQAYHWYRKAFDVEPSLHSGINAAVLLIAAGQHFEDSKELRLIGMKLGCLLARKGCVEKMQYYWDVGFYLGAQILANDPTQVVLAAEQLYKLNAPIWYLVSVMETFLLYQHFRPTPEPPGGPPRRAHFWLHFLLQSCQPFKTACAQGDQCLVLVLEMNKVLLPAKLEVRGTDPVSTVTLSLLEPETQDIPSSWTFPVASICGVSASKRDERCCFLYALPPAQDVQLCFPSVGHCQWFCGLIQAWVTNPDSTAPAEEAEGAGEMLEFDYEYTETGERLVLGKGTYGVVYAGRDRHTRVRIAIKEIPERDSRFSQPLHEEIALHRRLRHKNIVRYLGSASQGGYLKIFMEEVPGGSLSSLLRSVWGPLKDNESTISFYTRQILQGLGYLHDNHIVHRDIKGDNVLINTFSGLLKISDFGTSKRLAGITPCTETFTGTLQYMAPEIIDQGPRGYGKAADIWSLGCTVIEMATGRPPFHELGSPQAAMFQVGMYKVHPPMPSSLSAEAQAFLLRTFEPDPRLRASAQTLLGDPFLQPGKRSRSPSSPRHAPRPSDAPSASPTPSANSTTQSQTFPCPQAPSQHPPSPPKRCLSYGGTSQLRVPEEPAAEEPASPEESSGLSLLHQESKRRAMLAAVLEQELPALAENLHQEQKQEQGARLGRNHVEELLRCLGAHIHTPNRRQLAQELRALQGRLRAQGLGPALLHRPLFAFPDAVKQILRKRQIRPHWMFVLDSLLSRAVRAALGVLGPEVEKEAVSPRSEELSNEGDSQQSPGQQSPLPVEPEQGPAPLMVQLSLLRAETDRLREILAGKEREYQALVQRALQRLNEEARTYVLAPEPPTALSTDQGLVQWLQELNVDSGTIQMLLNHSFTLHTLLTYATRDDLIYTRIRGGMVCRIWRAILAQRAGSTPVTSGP

[4] = molecular target: Citron Rho-interacting kinase (Homo sapiens) (UniProt O14578); assay: Inhibition of CIT (unknown origin) at 10 uM by Ambit Kinomescan binding assay relative to control; values are per cent of control
[5] = molecular target: Serine/threonine-protein kinase ATR (Homo sapiens) (UniProt Q13535); assay: Inhibition of ATR in human Huh-7 cell lysate at 1 uM by KiNativ Profiling analysis relative to control; format: subcellular
[6] = molecular target: Mitogen-activated protein kinase 8 (Homo sapiens, UniProt P45983); assay: Inhibition of JNK1 Lys2 labeling site in human Huh-7 cells at 1 uM by KiNativ Profiling analysis relative to control; format: cell-based
[7] = molecular target: Microtubule-associated serine/threonine-protein kinase 4 (Homo sapiens) (UniProt O15021); assay: Inhibition of MAST4 Lys2 labeling site in human Huh-7 cells at 1 uM by KiNativ Profiling analysis relative to control; format: cell-based
[8] = molecular target: eIF-2-alpha kinase GCN2 (Homo sapiens) (UniProt Q9P2K8); assay: Inhibition of GCN2 domain2 Lys2 labeling site in human Huh-7 cell lysate at 1 uM by KiNativ Profiling analysis relative to control; format: subcellular
[9] = molecular target: T2, Serine/threonine-protein kinase Nek9 (Homo sapiens) (UniProt Q8TD19); assay: Inhibition of NEK9 Lys2 labeling site in human Huh-7 cells at 1 uM by KiNativ Profiling analysis relative to control; format: cell-based
T2 sequence (whole entry): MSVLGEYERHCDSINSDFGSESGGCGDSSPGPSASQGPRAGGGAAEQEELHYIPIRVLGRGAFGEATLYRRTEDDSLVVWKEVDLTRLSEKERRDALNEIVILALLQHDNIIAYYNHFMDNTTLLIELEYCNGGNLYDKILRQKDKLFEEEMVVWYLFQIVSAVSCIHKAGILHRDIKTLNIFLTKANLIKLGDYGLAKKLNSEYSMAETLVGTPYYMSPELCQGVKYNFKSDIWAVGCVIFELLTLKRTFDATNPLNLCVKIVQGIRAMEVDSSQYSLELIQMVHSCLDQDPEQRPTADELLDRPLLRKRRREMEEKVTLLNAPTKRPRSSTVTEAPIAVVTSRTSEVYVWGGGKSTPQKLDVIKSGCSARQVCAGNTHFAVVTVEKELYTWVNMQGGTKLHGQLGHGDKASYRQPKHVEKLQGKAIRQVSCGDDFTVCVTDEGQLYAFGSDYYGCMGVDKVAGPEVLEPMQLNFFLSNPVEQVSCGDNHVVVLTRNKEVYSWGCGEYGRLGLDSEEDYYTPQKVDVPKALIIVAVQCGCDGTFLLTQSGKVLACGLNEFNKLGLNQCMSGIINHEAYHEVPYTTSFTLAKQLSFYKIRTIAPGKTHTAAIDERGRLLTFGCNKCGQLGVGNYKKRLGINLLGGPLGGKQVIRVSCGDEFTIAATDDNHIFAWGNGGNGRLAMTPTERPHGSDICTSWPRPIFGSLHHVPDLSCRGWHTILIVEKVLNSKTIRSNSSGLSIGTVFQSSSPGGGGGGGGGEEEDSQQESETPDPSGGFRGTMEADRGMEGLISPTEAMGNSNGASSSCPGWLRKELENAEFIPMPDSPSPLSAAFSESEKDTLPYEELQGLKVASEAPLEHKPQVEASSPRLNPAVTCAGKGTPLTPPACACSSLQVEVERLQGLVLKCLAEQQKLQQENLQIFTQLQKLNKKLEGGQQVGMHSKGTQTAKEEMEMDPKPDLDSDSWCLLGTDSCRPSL

Chain of eIF-2-alpha kinase GCN2 (Homo sapiens) (Q9P2K8 whole entry, the tested form may be a part): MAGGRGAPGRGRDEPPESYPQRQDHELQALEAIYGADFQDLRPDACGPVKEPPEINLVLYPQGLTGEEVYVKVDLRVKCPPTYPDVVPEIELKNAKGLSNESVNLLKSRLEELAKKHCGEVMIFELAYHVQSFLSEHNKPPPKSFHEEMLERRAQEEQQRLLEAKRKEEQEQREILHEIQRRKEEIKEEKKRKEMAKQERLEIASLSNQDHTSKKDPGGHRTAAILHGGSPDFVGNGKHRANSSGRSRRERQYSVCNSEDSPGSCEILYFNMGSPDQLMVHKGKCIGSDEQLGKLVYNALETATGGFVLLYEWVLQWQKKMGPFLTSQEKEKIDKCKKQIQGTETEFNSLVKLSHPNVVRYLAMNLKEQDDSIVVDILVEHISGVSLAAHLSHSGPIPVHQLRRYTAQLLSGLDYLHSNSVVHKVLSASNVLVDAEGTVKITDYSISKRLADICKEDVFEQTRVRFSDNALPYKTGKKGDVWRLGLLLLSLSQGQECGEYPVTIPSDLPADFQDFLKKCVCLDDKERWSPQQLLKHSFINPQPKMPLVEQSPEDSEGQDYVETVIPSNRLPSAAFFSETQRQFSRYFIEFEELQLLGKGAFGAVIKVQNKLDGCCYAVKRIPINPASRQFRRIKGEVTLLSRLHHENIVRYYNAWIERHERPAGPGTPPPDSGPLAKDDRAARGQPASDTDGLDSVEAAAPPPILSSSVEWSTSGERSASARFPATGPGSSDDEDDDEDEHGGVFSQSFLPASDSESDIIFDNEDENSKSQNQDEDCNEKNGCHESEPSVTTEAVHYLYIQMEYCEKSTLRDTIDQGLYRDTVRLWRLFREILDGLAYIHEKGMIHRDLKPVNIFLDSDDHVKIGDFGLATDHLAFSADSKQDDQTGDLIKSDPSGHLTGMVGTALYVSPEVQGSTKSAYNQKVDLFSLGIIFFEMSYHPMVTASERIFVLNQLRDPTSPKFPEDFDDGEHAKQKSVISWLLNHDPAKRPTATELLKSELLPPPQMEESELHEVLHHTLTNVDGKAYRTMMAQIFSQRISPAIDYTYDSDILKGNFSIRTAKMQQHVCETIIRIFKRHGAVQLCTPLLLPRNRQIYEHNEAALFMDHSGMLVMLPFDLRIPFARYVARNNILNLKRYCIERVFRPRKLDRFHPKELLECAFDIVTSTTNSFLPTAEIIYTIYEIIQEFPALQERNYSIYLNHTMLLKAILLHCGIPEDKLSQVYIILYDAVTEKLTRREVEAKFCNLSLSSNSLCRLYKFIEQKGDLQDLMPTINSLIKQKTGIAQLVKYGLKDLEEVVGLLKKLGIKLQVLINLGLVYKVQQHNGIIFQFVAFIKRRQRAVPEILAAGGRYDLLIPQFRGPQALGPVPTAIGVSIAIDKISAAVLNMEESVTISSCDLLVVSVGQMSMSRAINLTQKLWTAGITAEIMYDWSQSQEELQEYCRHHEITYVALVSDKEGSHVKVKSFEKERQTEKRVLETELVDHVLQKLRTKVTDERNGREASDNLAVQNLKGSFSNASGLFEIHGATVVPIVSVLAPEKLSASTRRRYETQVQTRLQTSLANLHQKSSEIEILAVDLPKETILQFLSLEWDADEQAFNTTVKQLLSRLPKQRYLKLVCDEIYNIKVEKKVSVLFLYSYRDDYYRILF
Chain of Serine/threonine-protein kinase ATR (Homo sapiens) (Q13535 whole entry, looked up): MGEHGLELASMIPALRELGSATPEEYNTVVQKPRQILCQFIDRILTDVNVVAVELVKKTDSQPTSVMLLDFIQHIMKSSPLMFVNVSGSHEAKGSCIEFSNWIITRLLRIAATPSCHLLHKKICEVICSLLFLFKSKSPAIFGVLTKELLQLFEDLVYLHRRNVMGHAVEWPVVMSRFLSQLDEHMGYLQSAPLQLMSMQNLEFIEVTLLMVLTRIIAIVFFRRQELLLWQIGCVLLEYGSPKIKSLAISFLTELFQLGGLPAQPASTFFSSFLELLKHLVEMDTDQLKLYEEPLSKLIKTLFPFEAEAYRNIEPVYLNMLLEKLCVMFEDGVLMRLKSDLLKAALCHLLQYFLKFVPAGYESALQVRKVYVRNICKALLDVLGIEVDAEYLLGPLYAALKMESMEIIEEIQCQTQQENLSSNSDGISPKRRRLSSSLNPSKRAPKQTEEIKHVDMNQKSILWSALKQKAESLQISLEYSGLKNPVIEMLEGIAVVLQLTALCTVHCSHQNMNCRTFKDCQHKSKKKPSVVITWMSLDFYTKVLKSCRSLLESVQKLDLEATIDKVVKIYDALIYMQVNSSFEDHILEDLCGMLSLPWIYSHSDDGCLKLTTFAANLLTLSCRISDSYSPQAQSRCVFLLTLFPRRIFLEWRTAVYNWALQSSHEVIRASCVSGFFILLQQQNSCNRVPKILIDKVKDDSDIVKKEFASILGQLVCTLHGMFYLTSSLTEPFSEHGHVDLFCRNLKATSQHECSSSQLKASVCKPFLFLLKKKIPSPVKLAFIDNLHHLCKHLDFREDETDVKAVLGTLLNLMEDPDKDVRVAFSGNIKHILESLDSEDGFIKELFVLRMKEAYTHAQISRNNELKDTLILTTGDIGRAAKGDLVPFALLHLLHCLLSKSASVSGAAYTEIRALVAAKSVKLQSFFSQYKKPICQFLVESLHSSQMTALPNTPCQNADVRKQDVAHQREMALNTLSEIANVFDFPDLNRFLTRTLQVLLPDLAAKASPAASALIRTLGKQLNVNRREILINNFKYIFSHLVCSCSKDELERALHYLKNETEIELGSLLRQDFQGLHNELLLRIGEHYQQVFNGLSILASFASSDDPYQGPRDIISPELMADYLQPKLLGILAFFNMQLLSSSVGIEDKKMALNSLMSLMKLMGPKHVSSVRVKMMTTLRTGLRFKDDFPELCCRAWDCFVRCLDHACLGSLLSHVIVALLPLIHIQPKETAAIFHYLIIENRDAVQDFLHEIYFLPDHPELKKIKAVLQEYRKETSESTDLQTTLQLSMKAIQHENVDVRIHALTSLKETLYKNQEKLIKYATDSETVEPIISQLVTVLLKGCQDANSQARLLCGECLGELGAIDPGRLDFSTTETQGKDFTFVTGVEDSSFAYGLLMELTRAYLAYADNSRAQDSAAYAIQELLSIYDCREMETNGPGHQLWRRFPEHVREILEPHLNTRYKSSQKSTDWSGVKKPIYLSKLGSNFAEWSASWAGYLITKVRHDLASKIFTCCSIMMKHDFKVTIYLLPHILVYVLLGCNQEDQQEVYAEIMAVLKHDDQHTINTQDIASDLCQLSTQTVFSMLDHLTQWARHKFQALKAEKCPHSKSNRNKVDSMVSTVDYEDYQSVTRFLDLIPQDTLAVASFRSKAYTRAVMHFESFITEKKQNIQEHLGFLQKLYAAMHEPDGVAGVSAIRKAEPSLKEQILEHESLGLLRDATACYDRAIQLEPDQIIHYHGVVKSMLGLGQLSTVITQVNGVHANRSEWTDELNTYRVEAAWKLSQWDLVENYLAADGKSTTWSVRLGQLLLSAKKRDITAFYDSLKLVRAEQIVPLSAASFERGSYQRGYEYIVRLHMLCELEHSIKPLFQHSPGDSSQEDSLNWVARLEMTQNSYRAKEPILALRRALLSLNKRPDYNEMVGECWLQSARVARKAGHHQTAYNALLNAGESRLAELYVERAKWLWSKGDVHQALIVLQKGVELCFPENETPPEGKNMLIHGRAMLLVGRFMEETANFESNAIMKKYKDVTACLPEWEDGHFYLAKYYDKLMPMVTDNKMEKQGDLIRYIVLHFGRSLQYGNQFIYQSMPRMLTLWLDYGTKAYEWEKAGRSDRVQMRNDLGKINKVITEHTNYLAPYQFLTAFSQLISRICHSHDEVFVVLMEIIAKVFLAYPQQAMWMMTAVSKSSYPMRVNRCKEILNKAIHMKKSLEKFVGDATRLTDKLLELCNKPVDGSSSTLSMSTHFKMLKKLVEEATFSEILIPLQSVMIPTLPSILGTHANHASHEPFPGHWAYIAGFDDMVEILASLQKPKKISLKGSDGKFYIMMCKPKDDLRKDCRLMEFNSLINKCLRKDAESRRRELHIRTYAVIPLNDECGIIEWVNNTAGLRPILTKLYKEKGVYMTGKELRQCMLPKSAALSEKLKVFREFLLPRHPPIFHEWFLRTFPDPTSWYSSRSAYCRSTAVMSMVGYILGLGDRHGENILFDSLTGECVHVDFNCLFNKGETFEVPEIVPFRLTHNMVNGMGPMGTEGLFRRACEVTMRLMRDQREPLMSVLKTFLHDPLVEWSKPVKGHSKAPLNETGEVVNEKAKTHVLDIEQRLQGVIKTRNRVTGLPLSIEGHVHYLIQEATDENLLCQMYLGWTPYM
Chain of Mitogen-activated protein kinase 8 (P45983 whole entry): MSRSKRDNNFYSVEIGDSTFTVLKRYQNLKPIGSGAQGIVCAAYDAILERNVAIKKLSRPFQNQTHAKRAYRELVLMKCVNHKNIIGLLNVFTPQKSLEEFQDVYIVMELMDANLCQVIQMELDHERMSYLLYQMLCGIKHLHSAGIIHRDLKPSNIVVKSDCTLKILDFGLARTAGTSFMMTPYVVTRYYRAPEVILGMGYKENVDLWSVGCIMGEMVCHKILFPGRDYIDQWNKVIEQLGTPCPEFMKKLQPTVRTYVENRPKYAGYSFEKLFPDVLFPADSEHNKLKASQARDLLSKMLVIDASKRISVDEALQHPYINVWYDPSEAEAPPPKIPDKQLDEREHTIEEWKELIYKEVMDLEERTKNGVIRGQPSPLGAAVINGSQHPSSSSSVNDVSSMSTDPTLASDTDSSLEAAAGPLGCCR

| Compound | inhibition [1] [%] | inhibition [2] [%] | inhibition [3] [%] | percent of control [4] [%] | inhibition [5] [%] | inhibition [6] [%] | inhibition [7] [%] | inhibition [8] [%] | inhibition [9] [%] |
| --- | --- | --- | --- | --- | --- | --- | --- | --- | --- |
| CCN1CCN(Cc2ccc(NC(=O)c3ccc(C)c(Oc4ccnc5[nH]ccc45)c3)cc2C(F)(F)F)CC1 | 15.7 | 0.1 | -3.2 | 0.1 |  |  |  |  |  |
| CNc1cc(Oc2cc(C(=O)Nc3cc(N4CCN(C)CC4)cc(C(F)(F)F)c3)ccc2C)ncn1 |  |  |  |  | 22.6 | 14.5 | 30.2 | 2.5 | -4.9 |
